Experimental data: patent US20260216400A1, “CELL-[…] MOLECULE IMPARTING PROTEIN ADHESION […] CELLS” (THE UNIVERSITY OF OSAKA, priority 2023, published 2026)

Key:
Assay in all cases: Binding of FITC-labeled collagen-binding peptides to coated wells (Example 6)
laminin = details: 37° C., 3 hours
Protocol: (§1) The selectivity of collagen-binding peptides for components of the extracellular matrix was investigated. […] After washing, the fluorescence intensity was measured using a confocal laser scanning microscope.

type IV collagen = details: 37° C., 3 hours
Protocol: as §1

type I collagen = type I collagen (Homo sapiens, UniProt P02452+P08123)
Chain of type I collagen (P08123 80-1119): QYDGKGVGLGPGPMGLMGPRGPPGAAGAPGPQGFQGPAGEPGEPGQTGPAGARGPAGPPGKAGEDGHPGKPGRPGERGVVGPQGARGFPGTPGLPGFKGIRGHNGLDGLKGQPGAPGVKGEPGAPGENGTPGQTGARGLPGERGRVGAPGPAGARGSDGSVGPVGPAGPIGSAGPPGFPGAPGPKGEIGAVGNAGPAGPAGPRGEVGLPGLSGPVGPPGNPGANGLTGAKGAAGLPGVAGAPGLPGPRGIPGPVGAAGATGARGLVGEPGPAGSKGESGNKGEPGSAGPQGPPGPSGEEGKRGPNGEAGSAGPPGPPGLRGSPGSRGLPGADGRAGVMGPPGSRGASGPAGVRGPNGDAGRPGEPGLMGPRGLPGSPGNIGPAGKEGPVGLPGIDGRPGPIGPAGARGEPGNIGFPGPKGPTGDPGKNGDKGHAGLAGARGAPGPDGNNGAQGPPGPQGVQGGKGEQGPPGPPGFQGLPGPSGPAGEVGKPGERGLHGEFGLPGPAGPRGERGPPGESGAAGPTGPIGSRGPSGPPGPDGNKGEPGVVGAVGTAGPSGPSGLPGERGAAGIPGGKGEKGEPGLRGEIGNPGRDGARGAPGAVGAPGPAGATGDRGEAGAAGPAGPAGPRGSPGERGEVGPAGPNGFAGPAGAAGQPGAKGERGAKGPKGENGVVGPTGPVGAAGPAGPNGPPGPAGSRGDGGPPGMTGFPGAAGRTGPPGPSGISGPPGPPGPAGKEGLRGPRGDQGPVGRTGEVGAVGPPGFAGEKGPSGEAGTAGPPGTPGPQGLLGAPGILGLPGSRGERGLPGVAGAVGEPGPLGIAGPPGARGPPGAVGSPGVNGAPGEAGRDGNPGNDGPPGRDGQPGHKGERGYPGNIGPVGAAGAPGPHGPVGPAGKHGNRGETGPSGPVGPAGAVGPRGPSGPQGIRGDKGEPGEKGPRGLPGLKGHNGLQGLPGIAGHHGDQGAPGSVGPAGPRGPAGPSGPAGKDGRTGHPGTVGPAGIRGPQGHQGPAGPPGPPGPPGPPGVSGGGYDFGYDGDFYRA
Chain of type I collagen (P02452 162-1218): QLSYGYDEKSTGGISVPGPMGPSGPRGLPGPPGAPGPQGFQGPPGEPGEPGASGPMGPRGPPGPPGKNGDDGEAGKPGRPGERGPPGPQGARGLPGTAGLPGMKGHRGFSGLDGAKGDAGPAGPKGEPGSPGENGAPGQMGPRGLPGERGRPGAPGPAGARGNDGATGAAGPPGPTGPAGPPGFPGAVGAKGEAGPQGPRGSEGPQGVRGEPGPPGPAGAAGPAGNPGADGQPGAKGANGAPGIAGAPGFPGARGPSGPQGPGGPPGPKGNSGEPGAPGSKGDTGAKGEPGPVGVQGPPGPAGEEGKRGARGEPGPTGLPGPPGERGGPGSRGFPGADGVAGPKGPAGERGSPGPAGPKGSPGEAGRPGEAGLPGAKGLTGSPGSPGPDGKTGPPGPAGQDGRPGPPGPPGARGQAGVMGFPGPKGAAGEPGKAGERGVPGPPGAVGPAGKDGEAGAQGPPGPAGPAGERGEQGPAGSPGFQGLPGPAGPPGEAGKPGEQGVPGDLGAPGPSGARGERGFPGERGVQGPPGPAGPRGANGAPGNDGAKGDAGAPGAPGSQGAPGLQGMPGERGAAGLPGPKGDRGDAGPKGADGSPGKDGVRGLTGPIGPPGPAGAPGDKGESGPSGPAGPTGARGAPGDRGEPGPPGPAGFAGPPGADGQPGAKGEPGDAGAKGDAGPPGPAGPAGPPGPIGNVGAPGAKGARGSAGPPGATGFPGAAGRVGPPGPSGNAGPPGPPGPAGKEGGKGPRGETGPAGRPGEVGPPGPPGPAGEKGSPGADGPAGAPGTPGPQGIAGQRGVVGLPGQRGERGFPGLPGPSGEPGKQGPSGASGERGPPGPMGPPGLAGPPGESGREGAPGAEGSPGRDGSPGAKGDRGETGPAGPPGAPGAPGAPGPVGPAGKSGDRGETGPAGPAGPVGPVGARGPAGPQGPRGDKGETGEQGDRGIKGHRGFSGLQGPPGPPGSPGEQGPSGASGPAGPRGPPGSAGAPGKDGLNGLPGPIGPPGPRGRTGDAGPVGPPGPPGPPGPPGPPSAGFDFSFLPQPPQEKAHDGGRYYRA

Row | Substance | binding to laminin (fluorescence intensity) (laminin) | binding to type IV collagen (fluorescence intensity) (type IV collagen) | fluorescence intensity compared between peptides (type I collagen; 100 μM (box in FIG. 6), type I collagen, type IV collagen, laminin wells) | binding to type I collagen (fluorescence intensity) (type I collagen; coated wells, 37° C., 3 hours) | selectivity for components of the extracellular matrix (order) (type I collagen; type I collagen, type IV collagen, laminin)
1 | TKKTLRT | in a concentration-dependent manner | in a concentration-dependent manner | – | – | –
2 | SYIRIADNTNIT | in a concentration-dependent manner | in a concentration-dependent manner | stronger than that of TKKTLRT | in a concentration-dependent manner | type I collagen>type IV collagen>laminin
